These results are taken from US20240246916A1, “7-NITRO-8-HYDROXYQUINOLINE DERIVATIVES, PREPARATION METHOD THEREFORE AND MEDICAL USE THEREOF” (Jiangsu Yahong Meditech Co., Ltd., priority 2021, published 2024).

Converted amounts (≈) assume the structure as drawn.

Common to all, as to format: cell-based
Test [1] deals with Endothelial cell line HUVEC. The experiment in a line: Inhibitory activity on cells, CellTiter-Glo viability, HUVEC. Conditions: Homo sapiens, 72 hours treatment. As for the experimental part: (§1) HUVEC (purchased from Allcells Biological Technology (Shanghai) Co., Ltd.); UM-UC-3 (ATCC); LNCaP (ATCC); RM-1 (purchased from Nanjing Cobioer Biosciences Co., Ltd.) (1) On the first day, the cells were seeded in a 96-well plate, and the previous medium was poured off. 5 mL of DPBS was added to wash the cells, and then removed by a pipette and discarded. Then, 1 mL of trypsin (0.25%) was added, and the plate was placed in a cell culture incubator at 37 °C, 5% CO2 for digestion, and taken out after about 2 to 5 minutes. New corresponding medium was added, and pipetted to resuspend the cells evenly, and the cells were then counted with an automated cell counter. Regarding HUVEC, the medium used was endothelial cell complete medium; regarding UM-UC-3, the medium used was 89 v % EMEM+10 v % fetal bovine serum+1 v % penicillin-streptomycin double anti-body; regarding LNcaP, the medium used was 89 v % RPM11640+10 v % fetal bovine serum+1 v % penicillin-streptomycin double anti-body; and regarding RM1, the medium used was 89 v % DMEM+10 v % fetal bovine serum+1 v % penicillin-streptomycin double anti-body. (2) HUVEC cells were seeded in columns 1 to 11 of a 96-well plate (Corning, Cat. No. 3610) at a density of 2000 cells per well in 100 μL of medium, and the medium free of cell was added to the wells of column 12. The other three types of cells were also seeded, wherein UM-UC-3 and RM-1 cells were seeded at a density of 3000 cells per well, and LNCap cells were seeded at a density of 5000 cells per well. Then, the plate was placed in an incubator at 37° C., 5% CO2 for 24 hours. (3) On the second day, the compounds of the present invention and the reference drug nitroxoline (obtained according to the preparation method disclosed in the prior art) were diluted in gradient (2.5 folds, started at 100 μmol) to obtain 8 dose points (there were a total of 8 columns of wells; the first column of wells had the highest concentration, the concentration decreased in turn, and the last column of wells had the lowest concentration). 10 μL of the compound diluted in gradient was added to the 100 μL of cells in column 1 to column 10 with an 8-channel pipette. 10 μL of the corresponding medium containing 0.33 v % DMSO was added to column 11 and column 12. The plate was incubated in an incubator at 37° C., 5% CO2 for 72 hours (note: column 11 was used as MAX well with cells and no compounds; and column 12 was used as MIN well with no cells and no compounds). (4) After treating with the compounds of the present invention for 72 hours, the cell viability detection reagents in the above CellTiter-Glo® assay kit were added to the 96-well plate at 50 μL per well according to the instructions. The plate was shaken on a shaker in the dark for 5 to 10 minutes, and then the cell activity was determined by a multifunctional microplate reader. Finally, the growth inhibition of the compounds of the present invention on the cells was plotted by XLFIT 5.3 software, and the IC50 values of the compounds of the present invention were calculated.
A general note: Cellular ATP, detected with luciferase, serves as a proxy for viable cell number.

The subject of test [2] is Bladder cancer cell line UM-UC-3. The experiment in a line: Inhibitory activity on cancer cells, CellTiter-Glo viability, UM-UC-3. Conditions: Homo sapiens, UMUC3, 72 hours treatment. As for the experimental part:
as §1

Test [3] has as its system Prostate cancer cell line LNcaP. Nature of the test: Inhibitory activity on cancer cells, CellTiter-Glo viability, LNcaP. To be noted: Homo sapiens, 72 hours treatment. The method, then:
as §1

Test [4] deals with Mouse prostate cancer cell line RM1. Nature of the test: Inhibitory activity on cancer cells, CellTiter-Glo viability, RM1. To be noted: 72 hours treatment. As for the experimental part:
as §1

The test system of test [5] is Escherichia coli (carbapenem-resistant clinical isolate; ATCC25922). Nature of the test: MIC by micro broth dilution (CLSI), Escherichia coli. To be noted: for MIC50 / MIC90: ATCC25922, Clinical strain; for MIC50 / MIC90 / MIC: Escherichia coli; for MIC50: read-out: MIC50; for MIC90: read-out: MIC90; for MIC: Standard strain ATCC25922, read-out: MIC. An outline of the steps:
(§2)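 MICs against clinical resistant and sensitive isolates and reference strains determined in CAMHB following CLSI microdilution, incubating 20 h at 35±2 °C in air. Final inoculum 10^5 CFU/mL; DMSO-dissolved compound tested over 0.06–128 mg/L; CLSI M100 (2019) criteria applied.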
A general note: In broth dilution the organism is exposed to a series of concentrations in liquid medium.

For test [6], the system named is Acinetobacter baumannii (carbapenem-resistant clinical isolates; ATCC19606). The experiment in a line: MIC by micro broth dilution (CLSI), Acinetobacter baumannii. Conditions: Acinetobacter baumannii; for MIC50 / MIC90: ATCC19606, Clinical strain; for MIC50: read-out: MIC50; for MIC90: read-out: MIC90; for MIC: Standard strain ATCC19606, read-out: MIC. An outline of the steps: as §2

The test system of test [7] is Staphylococcus aureus (methicillin-resistant and sensitive clinical isolates; ATCC29213). Nature of the test: MIC by micro broth dilution (CLSI), Staphylococcus aureus. Conditions: for MIC50 / MIC90: Clinical strain; for MIC50: read-out: MIC50; for MIC90: read-out: MIC90; for MIC: Standard strain ATCC29213, read-out: MIC. An outline of the steps: as §2

Take `COC(=O)N1CCN(c2ccnc3c(O)c([N+](=O)[O-])ccc23)CC1` [Example 26]: the IC50 in test [1] was determined as 15.1 µM; in test [2] it was 11.4 µM; in test [3], 11.9 µM; in test [4], 12.5 µM. Also, the MIC50 is over 128 µg/mL in test [5], 64 µg/mL (≈ 193 µM) in test [6] and 16 µg/mL (≈ 48.1 µM) in test [7]. Further, the figures for the MIC90 in test [5], in test [6] and in test [7] were over 128 µg/mL, over 128 µg/mL and 64 µg/mL (≈ 193 µM), respectively. Further, the results for the MIC in test [5], in test [6] and in test [7] were 128 µg/mL (≈ 385 µM), over 128 µg/mL and 128 µg/mL (≈ 385 µM), respectively.

Consider `COC(=O)[C@@H]1CCCN1c1ccnc2c(O)c([N+](=O)[O-])ccc12` [Example 28, Methyl (8-hydroxy-7-nitroquinolin-4-yl)-L-prolinate], for which the IC50 in test [1] came to 17.3 µM; in test [2], 42.3 µM; in test [3] it was 33 µM; in test [4] it was 17 µM. In addition, the MIC50 was over 128 µg/mL in test [5], 64 µg/mL (≈ 202 µM) in test [6] and 32 µg/mL (≈ 101 µM) in test [7]. Further, the MIC90 in test [5] was over 128 µg/mL; in test [6], over 128 µg/mL; in test [7] it was 32 µg/mL (≈ 101 µM). For the same compound, the MIC in test [5], in test [6] and in test [7] was over 128 µg/mL in each case.

Consider `CC(C)OC(=O)N1CCN(c2ccnc3c(O)c([N+](=O)[O-])cc(Cl)c23)CC1` [Example 58, Isopropyl 4-(5-chloro-8-hydroxy-7-nitroquinolin-4-yl)piperazine-1-carboxylate], for which the IC50 in test [1] was found to be 0.68 µM; in test [2], 2.55 µM; in test [3] it was 0.89 µM; in test [4], 0.91 µM.

Regarding `CCC(C)OC(=O)N1CCN(c2ccnc3c(O)c([N+](=O)[O-])cc(Cl)c23)CC1` (stereo not drawn) [Example 57, (1-Methyl)propyl 4-(5-chloro-8-hydroxy-7-nitroquinolin-4-yl)piperazine-1-carboxylate], the IC50 in test [1] came to 0.47 µM; in test [2], 0.49 µM; in test [3], 0.55 µM; in test [4], 2.35 µM.

On to `CCOC(=O)C1CCN(c2ccnc3c(O)c([N+](=O)[O-])cc(Cl)c23)CC1` [Example 46, Ethyl 1-(5-chloro-8-hydroxy-7-nitroquinolin-4-yl)piperidine-4-carboxylate], for which the IC50 in test [1] stood at 0.56 µM; in test [2], 0.96 µM; in test [3], 0.88 µM; in test [4] it was 1.86 µM. The MIC50 in test [5] was over 128 µg/mL; in test [6] it was over 128 µg/mL; in test [7], 32 µg/mL (≈ 84.3 µM). Besides, the MIC90 in test [5] was over 128 µg/mL; in test [6] it was over 128 µg/mL; in test [7], 64 µg/mL (≈ 169 µM). The MIC in test [5] was over 128 µg/mL; in test [6], over 128 µg/mL; in test [7] it was 32 µg/mL (≈ 84.3 µM).

For `CC(C)(C)C(=O)N1CCN(c2ccnc3c(O)c([N+](=O)[O-])cc(Cl)c23)CC1` [Example 45, 4-(5-Chloro-8-hydroxy-7-nitroquinolin-4-yl)-1-(2,2,2-trimethylacetyl)piperazine], the IC50 in test [1] came to 10.1 µM; in test [2], 23.6 µM; in test [3], 5.43 µM; in test [4] it was 12.1 µM. Moreover, the MIC50 in test [5], in test [6] and in test [7] was over 128 µg/mL throughout. Moreover, the MIC90 in test [5], in test [6] and in test [7] was over 128 µg/mL each time. Further, the MIC in test [5], in test [6] and in test [7] was over 128 µg/mL throughout.

For the compound `COc1ccnc2c(O)c([N+](=O)[O-])ccc12` [Example 21, 4-Methoxy-7-nitroquinolin-8-ol], the IC50 is 10.3 µM in test [1], 4.84 µM in test [2], 6.75 µM in test [3] and 6.8 µM in test [4]. The MIC50 in test [5] was 8 µg/mL (≈ 36.3 µM); in test [6], 32 µg/mL (≈ 145 µM); in test [7], 4 µg/mL (≈ 18.2 µM). In addition, the MIC90 in test [5] was 32 µg/mL (≈ 145 µM); in test [6] it was 64 µg/mL (≈ 291 µM); in test [7], 8 µg/mL (≈ 36.3 µM). Besides, the results for the MIC in test [5], in test [6] and in test [7] were 8 µg/mL (≈ 36.3 µM), 32 µg/mL (≈ 145 µM) and 8 µg/mL (≈ 36.3 µM), respectively.

For `O=[N+]([O-])c1cc(Cl)c2c(F)ccnc2c1O` [Example 65, 5-Chloro-4-fluoro-7-nitroquinolin-8-ol], the IC50 in test [1] is 9.03 µM; in test [2], 11.5 µM; in test [3], 13.2 µM; in test [4], 21.7 µM.

As for `CC1CCCCN1c1ccnc2c(O)c([N+](=O)[O-])ccc12` (stereo not drawn) [Example 20, 4-(2-Methylpiperidinyl)-7-nitroquinolin-8-ol], the IC50 in test [1] stood at 5.6 µM; in test [2] it was 4.38 µM; in test [3], 3.33 µM; in test [4] it was 6.8 µM.

Turning to `O=[N+]([O-])c1ccc2c(N3CC=CC3)ccnc2c1O` [Example 23, 4-(2,5-Dihydro-1H-pyrrolyl)-7-nitroquinolin-8-ol], the IC50 in test [1], in test [2], in test [3] and in test [4] was over 100 µM in each case.

For the compound `COc1c(C2CC2)cnc2c(O)c([N+](=O)[O-])ccc12` [Example 75, 3-cyclopropyl-4-methoxy-7-nitroquinolin-8-ol], the IC50 in test [1] was 3.41 µM; in test [2], 9.27 µM; in test [3], 1.77 µM; in test [4], 2.05 µM.

For `O=[N+]([O-])c1cc(Cl)c2c(OC3CCCCC3)ccnc2c1O` [Example 60, 5-Chloro-4-(cyclohexyloxy)-7-nitroquinolin-8-ol], the IC50 in test [1] came out at 0.7 µM; in test [2], 5.82 µM; in test [3], 0.64 µM; in test [4] it was 1.13 µM.

`O=[N+]([O-])c1cc(Cl)c2c(C3CC3)ccnc2c1O` [Example 49, 5-Chloro-4-cyclopropyl-7-nitroquinolin-8-ol]: the IC50 in test [1] was determined as 1.59 µM; in test [2] it was 4.07 µM; in test [3] it was 1.04 µM; in test [4], 5.32 µM.

With `O=[N+]([O-])c1cc(Cl)c2c(N3CCC4(CC3)CC4)ccnc2c1O` [Example 63, 5-Chloro-7-nitro-4-(6-azaspiro[2.5]octan-6-yl)quinolin-8-ol], the IC50 in test [1] was 1.82 µM; in test [2], 7.07 µM; in test [3], 2.01 µM; in test [4], 7.47 µM.

Consider `O=[N+]([O-])c1ccc2c(Cl)ccnc2c1O` [Example 12, 4-Chloro-7-nitroquinolin-8-ol], for which the IC50 is 7.5 µM in test [1], 7.5 µM in test [2] and 4.1 µM in test [3]. Further, the MIC50 in test [5] came to 4 µg/mL (≈ 17.8 µM); in test [6], 2 µg/mL (≈ 8.9 µM); in test [7], 2 µg/mL (≈ 8.9 µM). The MIC90 was found to be 4 µg/mL (≈ 17.8 µM) in test [5], 4 µg/mL (≈ 17.8 µM) in test [6] and 2 µg/mL (≈ 8.9 µM) in test [7]. For the same compound, the MIC in test [5] came out at 4 µg/mL (≈ 17.8 µM); in test [6], 4 µg/mL (≈ 17.8 µM); in test [7] it was 2 µg/mL (≈ 8.9 µM). In addition, the “inhibitory effect against Escherichia coli compared with the reference drug nitroxoline” value in test [5] (MIC comparison) is “comparable to that of the reference drug nitroxoline”.

What is called IC50 is the concentration needed to halve the response being measured. Lower therefore signals higher potency. One may read the MIC50 as an inhibitory concentration at the 50% level, which refers to growth in some studies and to a panel of isolates in others. For orientation: MIC90 means an inhibitory concentration at the 90% level, which refers to growth in some studies and to a panel of isolates in others. The term MIC denotes the lowest concentration that inhibits growth of the organism.
